Data as given in the supplement of paper PMC10307832.

How the values were obtained:
Assay in all cases: relative viability (nuclei count vs DMSO), 5 days (fraction); higher = more cells survive
[1] = compound: C1CN(CCC1C(C2=CC3=C(C=C2)OCO3)(C4=CC5=C(C=C4)OCO5)O)C(=O)OC6=CC=C(C=C6)[N+](=O)[O-] [JZL-184] + CC(C)C[C@H](NC(=O)[C@H](Cc1ccccc1)NC(=O)c1cnccn1)B(O)O [Bortezomib] (partner 0.002 µM)
How it was run: (§1)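 Dosing by pin tool came one day after lung cancer cell lines were seeded in 1536-well plates, using either one drug or a fixed anchor-drug dose plus five library-drug doses (not always all listed) in √10 steps. After 5 days, nuclei were counted on 4× images. Relative viability is treated-well nuclei count divided by vehicle-well nuclei count, and values are medians of duplicate plates.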

[2] = compound: C1CN(CCC1C(C2=CC3=C(C=C2)OCO3)(C4=CC5=C(C=C4)OCO5)O)C(=O)OC6=CC=C(C=C6)[N+](=O)[O-] [JZL-184] + CCNC(=O)c1noc(-c2cc(C(C)C)c(O)cc2O)c1-c1ccc(CN2CCOCC2)cc1 [Luminespib] (partner 0.01 µM)
How it was run: as §1

[3] = compound: C1CN(CCC1C(C2=CC3=C(C=C2)OCO3)(C4=CC5=C(C=C4)OCO5)O)C(=O)OC6=CC=C(C=C6)[N+](=O)[O-] [JZL-184] + COc1cc2c(Oc3ccc(NC(=O)C4(C(=O)Nc5ccc(F)cc5)CC4)cc3F)ccnc2cc1OCCCN1CCOCC1 [Foretinib] (partner 0.25 µM)
How it was run: as §1

[4] = compound: C1CN(CCC1C(C2=CC3=C(C=C2)OCO3)(C4=CC5=C(C=C4)OCO5)O)C(=O)OC6=CC=C(C=C6)[N+](=O)[O-] [JZL-184] + Cc1cc(Nc2cc(N3CCN(C)CC3)nc(Sc3ccc(NC(=O)C4CC4)cc3)n2)n[nH]1 [Tozasertib] (partner 0.1 µM)
How it was run: as §1

[5] = compound: C1CN(CCC1C(C2=CC3=C(C=C2)OCO3)(C4=CC5=C(C=C4)OCO5)O)C(=O)OC6=CC=C(C=C6)[N+](=O)[O-] [JZL-184] + O=C(CCCCCCC(=O)Nc1ccccc1)NO [Vorinostat] (partner 1 µM)
How it was run: as §1

| Cell Line | relative viability ([1]; first compound 0.04 µM) | relative viability ([1]; first compound 0.4 µM) | relative viability ([1]; first compound 1.265 µM) | relative viability ([1]; first compound 4 µM) | relative viability ([2]; first compound 0.04 µM) | relative viability ([2]; first compound 0.4 µM) | relative viability ([2]; first compound 1.265 µM) | relative viability ([2]; first compound 4 µM) | relative viability ([3]; first compound 0.04 µM) | relative viability ([3]; first compound 0.4 µM) | relative viability ([3]; first compound 1.265 µM) | relative viability ([3]; first compound 4 µM) | relative viability ([4]; first compound 0.04 µM) | relative viability ([4]; first compound 0.4 µM) | relative viability ([4]; first compound 1.265 µM) | relative viability ([4]; first compound 4 µM) | relative viability ([5]; first compound 0.04 µM) | relative viability ([5]; first compound 0.4 µM) | relative viability ([5]; first compound 1.265 µM) | relative viability ([5]; first compound 4 µM) |
| --- | --- | --- | --- | --- | --- | --- | --- | --- | --- | --- | --- | --- | --- | --- | --- | --- | --- | --- | --- | --- |
| CAL-12T | 1.15 | 0.942 | 1.18 | 1.08 | 0.478 | 0.449 | 0.849 | 0.395 | 1.22 | 1.07 | 1.07 | 1.2 | 0.336 | 0.269 | 0.336 | 0.228 | 0.86 | 0.805 | 0.88 | 0.717 |
| COR-L23 | 1.2 | 0.915 | 0.979 | 0.91 | 0.776 | 0.7 | 0.781 | 0.642 | 0.978 | 0.881 | 1.01 | 0.902 | 0.197 | 0.181 | 0.215 | 0.143 | 0.649 | 0.472 | 0.477 | 0.459 |
| COR-L 105 | 0.922 | 0.742 | 0.837 | 0.759 | 0.899 | 0.818 | 0.901 | 0.741 | 0.989 | 0.975 | 0.995 | 1.22 | 0.381 | 0.398 | 0.381 | 0.319 | 0.789 | 0.8 | 0.905 | 0.82 |
| ChaGo-K-1 | 1.45 | 0.984 | 1.1 | 1.03 | 0.592 | 0.591 | 0.623 | 0.598 | 0.981 | 0.872 | 0.96 | 0.911 | 0.265 | 0.224 | 0.211 | 0.235 | 0.79 | 0.726 | 0.751 | 0.679 |
